Assays:
Settings in all cases: 48 h
NOMO1 [1] = assay: cell viability relative to DMSO control; higher = less cytotoxic
Method in brief: (§1)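 Cells were incubated for 48 h at 37°C before CellTiter-Glo One luminescence was read. The cells were NOMO1 or SEM (500 cells/well) or P12-Ichikawa (1000 cells/well) leukemia cells, adapted for at least four passages in each medium and seeded in 1536-well plates (5 μl). Dosing used library compounds in DMSO applied by pin over 11 threefold points, 47 μM to 0.79 nM. Viability is the per-plate percentage of DMSO wells, with cell-free wells as background.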

P12-Ichikawa [2] = assay: as above
Method in brief: as §1

SEM cells [3] = assay: as above
Method in brief: as §1

NOMO1 [4] = assay: AUC of viability dose-response curve (% viability x log10 dose units); higher = less sensitive
Method in brief: (§2)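 Leukemia cells adapted to each medium were seeded in 1536-well plates (500 or 1000 cells/well). They were dosed with library compounds in DMSO at 11 threefold doses, 47 μM to 0.79 nM, for 48 h at 37°C. CellTiter-Glo One luminescence was normalised per plate to DMSO and cell-free wells. Area under the curve was integrated by trapezoidal rule over log10 doses on a four-parameter log-logistic fit; curves exceeding full viability were scaled and curves failing quality control removed.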

P12-Ichikawa [5] = assay: as above
Method in brief: as §2

SEM cells [6] = assay: as above
Method in brief: as §2

CC(C[N+](C)(C)C)OC(N)=O (stereo not given)
cell viability [%]
Settings	NOMO1 [1]	P12-Ichikawa [2]	SEM cells [3]
HPLM + 10% dialyzed FBS, 0.000781 µM	128	109	107
HPLM + 10% dialyzed FBS, 0.00234 µM	124	121	114
HPLM + 10% dialyzed FBS, 0.00702 µM	121	116	83.5
HPLM + 10% dialyzed FBS, 0.0211 µM	119	122	98.8
HPLM + 10% dialyzed FBS, 0.0632 µM	131	114	96.1
HPLM + 10% dialyzed FBS, 0.19 µM	128	113	106
HPLM + 10% dialyzed FBS, 0.569 µM	116	120	104
HPLM + 10% dialyzed FBS, 1.71 µM	117	118	116
HPLM + 10% dialyzed FBS, 5.12 µM	119	111	106
HPLM + 10% dialyzed FBS, 15.4 µM	139	110	110
HPLM + 10% dialyzed FBS, 46.1 µM	103	102	97.6
RPMI 5 mM glucose + 10% FBS, 0.000781 µM	115	–	105
RPMI 5 mM glucose + 10% FBS, 0.00234 µM	109	–	105
RPMI 5 mM glucose + 10% FBS, 0.00702 µM	119	–	87
RPMI 5 mM glucose + 10% FBS, 0.0211 µM	106	–	128
RPMI 5 mM glucose + 10% FBS, 0.0632 µM	118	–	117
RPMI 5 mM glucose + 10% FBS, 0.19 µM	108	–	132
RPMI 5 mM glucose + 10% FBS, 0.569 µM	108	–	120
RPMI 5 mM glucose + 10% FBS, 1.71 µM	105	–	124
RPMI 5 mM glucose + 10% FBS, 5.12 µM	100	–	113
RPMI 5 mM glucose + 10% FBS, 15.4 µM	101	–	120
RPMI 5 mM glucose + 10% FBS, 46.1 µM	97.5	–	109
RPMI 5 mM glucose + 10% dialyzed FBS, 0.000781 µM	–	122	116
RPMI 5 mM glucose + 10% dialyzed FBS, 0.00234 µM	–	119	123
RPMI 5 mM glucose + 10% dialyzed FBS, 0.00702 µM	–	122	88.7
RPMI 5 mM glucose + 10% dialyzed FBS, 0.0211 µM	–	125	114
RPMI 5 mM glucose + 10% dialyzed FBS, 0.0632 µM	–	122	120
RPMI 5 mM glucose + 10% dialyzed FBS, 0.19 µM	–	119	107
RPMI 5 mM glucose + 10% dialyzed FBS, 0.569 µM	–	114	125
RPMI 5 mM glucose + 10% dialyzed FBS, 1.71 µM	–	128	108
RPMI 5 mM glucose + 10% dialyzed FBS, 5.12 µM	–	122	112
RPMI 5 mM glucose + 10% dialyzed FBS, 15.4 µM	–	109	116
RPMI 5 mM glucose + 10% dialyzed FBS, 46.1 µM	–	102	108

AUC of viability dose-response curve
Settings	NOMO1 [4]	P12-Ichikawa [5]	SEM cells [6]
HPLM + 10% dialyzed FBS	462	469	462
RPMI 5 mM glucose + 10% FBS	456	456	456
RPMI 5 mM glucose + 10% dialyzed FBS	465	468	477

Cc1ccc(NC(=O)Nc2cc(C(F)(F)F)ccc2F)cc1Nc1ccc2c(c1)NC(=O)/C2=C\c1ccc[nH]1
cell viability [%]
Settings	NOMO1 [1]	P12-Ichikawa [2]	SEM cells [3]
HPLM + 10% dialyzed FBS, 0.000781 µM	–	122	108
HPLM + 10% dialyzed FBS, 0.00234 µM	–	123	131
HPLM + 10% dialyzed FBS, 0.00702 µM	–	133	121
HPLM + 10% dialyzed FBS, 0.0211 µM	–	133	115
HPLM + 10% dialyzed FBS, 0.0632 µM	–	131	118
HPLM + 10% dialyzed FBS, 0.19 µM	–	143	127
HPLM + 10% dialyzed FBS, 0.569 µM	–	139	131
HPLM + 10% dialyzed FBS, 1.71 µM	–	134	120
HPLM + 10% dialyzed FBS, 5.12 µM	–	128	111
HPLM + 10% dialyzed FBS, 15.4 µM	–	137	87.6
HPLM + 10% dialyzed FBS, 46.1 µM	–	70.3	16.2
RPMI 5 mM glucose + 10% FBS, 0.000781 µM	108	–	–
RPMI 5 mM glucose + 10% FBS, 0.00234 µM	126	–	–
RPMI 5 mM glucose + 10% FBS, 0.00702 µM	118	–	–
RPMI 5 mM glucose + 10% FBS, 0.0211 µM	124	–	–
RPMI 5 mM glucose + 10% FBS, 0.0632 µM	133	–	–
RPMI 5 mM glucose + 10% FBS, 0.19 µM	139	–	–
RPMI 5 mM glucose + 10% FBS, 0.569 µM	149	–	–
RPMI 5 mM glucose + 10% FBS, 1.71 µM	161	–	–
RPMI 5 mM glucose + 10% FBS, 5.12 µM	136	–	–
RPMI 5 mM glucose + 10% FBS, 15.4 µM	132	–	–
RPMI 5 mM glucose + 10% FBS, 46.1 µM	40.4	–	–
RPMI 5 mM glucose + 10% dialyzed FBS, 0.000781 µM	116	–	120
RPMI 5 mM glucose + 10% dialyzed FBS, 0.00234 µM	124	–	116
RPMI 5 mM glucose + 10% dialyzed FBS, 0.00702 µM	140	–	122
RPMI 5 mM glucose + 10% dialyzed FBS, 0.0211 µM	140	–	111
RPMI 5 mM glucose + 10% dialyzed FBS, 0.0632 µM	149	–	138
RPMI 5 mM glucose + 10% dialyzed FBS, 0.19 µM	150	–	139
RPMI 5 mM glucose + 10% dialyzed FBS, 0.569 µM	149	–	124
RPMI 5 mM glucose + 10% dialyzed FBS, 1.71 µM	160	–	124
RPMI 5 mM glucose + 10% dialyzed FBS, 5.12 µM	154	–	102
RPMI 5 mM glucose + 10% dialyzed FBS, 15.4 µM	115	–	76.2
RPMI 5 mM glucose + 10% dialyzed FBS, 46.1 µM	28.1	–	4.96

AUC of viability dose-response curve
Settings	NOMO1 [4]	P12-Ichikawa [5]	SEM cells [6]
HPLM + 10% dialyzed FBS	455	466	439
RPMI 5 mM glucose + 10% FBS	460	462	440
RPMI 5 mM glucose + 10% dialyzed FBS	449	454	428

CCCc1nc2c(C)cc(-c3nc4ccccc4n3C)cc2n1Cc1ccc(-c2ccccc2C(=O)O)cc1
cell viability [%]
Settings	NOMO1 [1]	P12-Ichikawa [2]	SEM cells [3]
HPLM + 10% dialyzed FBS, 0.000781 µM	117	123	117
HPLM + 10% dialyzed FBS, 0.00234 µM	102	124	115
HPLM + 10% dialyzed FBS, 0.00702 µM	112	122	123
HPLM + 10% dialyzed FBS, 0.0211 µM	110	125	120
HPLM + 10% dialyzed FBS, 0.0632 µM	139	126	124
HPLM + 10% dialyzed FBS, 0.19 µM	140	135	140
HPLM + 10% dialyzed FBS, 0.569 µM	136	130	100
HPLM + 10% dialyzed FBS, 1.71 µM	138	127	71.4
HPLM + 10% dialyzed FBS, 5.12 µM	127	123	127
HPLM + 10% dialyzed FBS, 15.4 µM	134	133	140
HPLM + 10% dialyzed FBS, 46.1 µM	134	123	144
RPMI 5 mM glucose + 10% FBS, 0.000781 µM	123	–	114
RPMI 5 mM glucose + 10% FBS, 0.00234 µM	123	–	121
RPMI 5 mM glucose + 10% FBS, 0.00702 µM	139	–	152
RPMI 5 mM glucose + 10% FBS, 0.0211 µM	126	–	133
RPMI 5 mM glucose + 10% FBS, 0.0632 µM	150	–	124
RPMI 5 mM glucose + 10% FBS, 0.19 µM	144	–	124
RPMI 5 mM glucose + 10% FBS, 0.569 µM	131	–	101
RPMI 5 mM glucose + 10% FBS, 1.71 µM	143	–	84.1
RPMI 5 mM glucose + 10% FBS, 5.12 µM	150	–	159
RPMI 5 mM glucose + 10% FBS, 15.4 µM	145	–	138
RPMI 5 mM glucose + 10% FBS, 46.1 µM	132	–	137
RPMI 5 mM glucose + 10% dialyzed FBS, 0.000781 µM	–	–	103
RPMI 5 mM glucose + 10% dialyzed FBS, 0.00234 µM	–	–	138
RPMI 5 mM glucose + 10% dialyzed FBS, 0.00702 µM	–	–	119
RPMI 5 mM glucose + 10% dialyzed FBS, 0.0211 µM	–	–	92.4
RPMI 5 mM glucose + 10% dialyzed FBS, 0.0632 µM	–	–	120
RPMI 5 mM glucose + 10% dialyzed FBS, 0.19 µM	–	–	125
RPMI 5 mM glucose + 10% dialyzed FBS, 0.569 µM	–	–	87.8
RPMI 5 mM glucose + 10% dialyzed FBS, 1.71 µM	–	–	64
RPMI 5 mM glucose + 10% dialyzed FBS, 5.12 µM	–	–	120
RPMI 5 mM glucose + 10% dialyzed FBS, 15.4 µM	–	–	116
RPMI 5 mM glucose + 10% dialyzed FBS, 46.1 µM	–	–	132

AUC of viability dose-response curve
Settings	NOMO1 [4]	P12-Ichikawa [5]	SEM cells [6]
HPLM + 10% dialyzed FBS	446	470	456
RPMI 5 mM glucose + 10% FBS	463	382	463
RPMI 5 mM glucose + 10% dialyzed FBS	465	465	472

Reference: the supplement of paper PMC11451515
